Measurements as given in patent US5922554A, “Inhibition of cellular uptake of cholesterol” (The Regents of the University of California, priority 1996, dated 1999).

Experiments:
[1] = system: fibroblast monolayers; assay: Transfer of intracellular ^3 H-FC to the cell surface (cholesterol oxidase accessibility); format: cell-based, human
Procedure: This assay utilized the finding (see Example 1) that only FC in the caveolar fraction of the plasma membrane fraction was modified by cholesterol oxidase in unfixed fibroblast monolayers.
The rate at which intracellular LDL-derived ^3 H-FC became accessible at the cell surface was measured as follows. Cell monolayers were labeled with ^3 H-FC LDL under the conditions shown for each experiment. Unbound and adsorbed LDL were removed as described above. In some experiments metabolic inhibitors of different transport steps were then added for 30 min at 15° C. […] Cholesterol oxidase (Boehringer-Manheim, Indianapolis, Ind., USA) was added in PBS to a final concentration of 1 U ml^-1. Incubation was for 4 h at 0° C. The cells were washed with ice-cold PBS, and extracted with 0. 1N NAOH. Cell total lipid was extracted with chloroform-methanol (1:1 v/v). […] .
Fibroblast monolayers were prelabeled with FC-labeled LDL for 2 min at 31° C. Medium and surface-bound labeled LDL were removed as described above. The cells were incubated with inhibitors of intracellular transport for 30 min at 15° C. Movement of FC label to the cell surface remained negligible (FIG. 11).
^a Relative to rate in the absence of inhibitor. Values are expressed

[2] = system: vesicular transport; settings: Tageya et al.; cited from earlier work
[3] = system: fibroblast monolayers; assay: D2O-Ficoll density gradient fractionation of ^3 H-FC labeled fibroblasts; format: cell-based, human; settings: clathrin fraction d 1.12 g ml^-1; NEM 2 mM
Procedure: Early endosomal vesicles were labeled with LDL-derived ^3 H-FC by a modification of procedures described by Woodman & Warren (1991) J. Cell Biol., 112:1133-1141. Fibroblast monolayers in 10 cm dishes were washed in ice-cold PBS. The cells were labeled by incubation (2 h, 4° C.) with ^3 H-FC LDL. The monolayers were washed in PBS and brought to 31° C. for 0-15 min. The cells were then quickly chilled on ice, and cold unlabeled LDL was added (15 min, 4° C.) to displace any remaining surface-bound labeled LDL and all subsequent steps were carried out at 0-4° C.
Cells from three 10 cm dishes were used for each gradient. Monolayers were washed with 140 mM sucrose, 0.5 mM MgCl2, 1 mM EGTA, 20 mM 2-[N-morpholino]ethanesulfonic acid (MES), 70 mM potassium acetate, pH 6.6 (`vesicle buffer`) (Woodman & Warren, supra.). The cells were scraped from the dishes. Dithiothreitol (1 mm) and protease inhibitors (PMSF, 200 μg ml^-1; benzamidine 0.5 mM; soybean trypsin inhibitor 10 μg ml^-1; leupeptin 1 μg ml^-1) were added. The cells were broken with a Dounce homogenizer (15 strokes) and the homogenate centrifuged at 500× g for 5 min. Ribonuclease A (50 μg ml^-1) was added. After 30 min a second centrifugation was carried out (7000× g, 30 min). Supernatant (~2 ml) was layered on a 10 ml continuous gradient of 2% Ficoll-9% D2 O to 20% Ficoll-90% D2 O in vesicle buffer containing 1 mM dithiothreitol. Centrifugation in a Beckman SW41 rotor was carried out at 80,000× g for 16 h. Fractions (~0.6 ml) were collected dropwise and the distribution of FC label determined. Because of slight variation in fraction size between gradients, data were normalized to 20 fractions for comparison between experiments. Solution density was determined gravimetrically using 100 μl portions of each fraction. The density of a given fraction was reproducible ±0.5% between experiments.
Fibroblast monolayers were incubated with ^3 H-FC LDL for 30 min at 31° C. to predominantly label the intermediate density vesicle fraction. Cell surface LDL was removed as described above. […]

[4] = system: fibroblast monolayers; assay: Cholesterol efflux from ^3 H-cholesterol labeled fibroblasts to plasma; format: cell-based, human
Procedure: Fibroblast monolayers were equilibrated with ^3 H-FC-labeled native plasma or with isolated ^3 H-labeled LDL, as specified for each experiment. Following incubation, the dishes were washed with albumin-complete PBS and then (×4) with complete PBS. They were then incubated for 3 min with unlabeled plasma or lipoprotein fractions and the rate of appearance of radioactivity in the medium determined. Samples of medium (100 μl) were immediately chilled in ice water and centrifuged (10 min, 2000× g) at 0-2° C. ^3 H-cholesterol radioactivity in the supernatant was either assayed directly, or fractionated by agarose gel electrophoresis. FC efflux was linear as previously reported (Kawano et al., Biochemistry, 32: 5025-5028 (1993)).
For electrophoresis, 20 μl portions of labeled medium were added to strips of 0.75% w/v agarose in 0.025M barbital buffer (pH 8.6) and separated as previously described (Fielding et al., Biochemistry, 30: 8551-8557 (1991)). 2.5 mm gel fractions were then collected, and radioactivity measured. The location of major lipoprotein classes was determined from strips run simultaneously with whole native plasma equilibrated (60 min, 37° C.) with ^3 H-FC.
^c Percent loss of label from cells prelabeled (10 min, 37° C.

[5] = system: fibroblast monolayers; assay: Cellular cholesterol mass determined enzymatically; format: cell-based, human; settings: 2 mM NEM, 120 min, 37° C.; control 4.1 ± 0.3
Procedure: In most experiments, LDL was labeled directly with ^3 H-FC by exchange from albumin-agarose covalent complex essentially as previously described (Miida et al., Biochemistry, 29: 10469-10474 (1990)). Briefly, recrystallized human serum albumin (Sigma Chemical Co, St. Louis, Mo., USA) was covalently linked to CNBr-activated Sepharose 6B (Pharmacia). 1,2-^3 H-FC in ethanol (0.1-1.0 mCi, 10-20 μl/ml gel suspension) was added and the mixture incubated with gentle stirring for 60 mm at 37° C. The labeled suspension was centrifuged (500× g, 1 min) and the gel equilibrated (60 min, 37° C.) with unlabeled LDL prepared as described above. Finally the gel was removed by centrifugation, leaving labeled LDL in the supernatant. LDL total and FC mass was determined fluorimetrically with cholesterol oxidase (Heider & Boyett, J. Lipid Res. 19: 514-518 (1978)) in the presence or absence of cholesterol esterase. EC mass was obtained by difference. LDL ^3 H-radioactivity was measured by liquid scintillation spectrometry. FC specific activity in these experiments was 3×10^4 to 5×10^5 cpm μg^-1.
The FC and EC mass of cell monolayers was determined before and after incubation with lipoprotein as described above. Portions of the chloroform phase were analyzed for total and free cholesterol. […]
^a Increase in cellular cholesterol mass determined enzymatically ove

Question: What does the source list for `CCN1C(=O)C=CC1=O` [N-ethylmaleimide]?
Answer: transport of intracellular ^3 H-FC to the cell surface/caveolae [1]: inhibited the return of FC to the cell surface, but less effectively than did nocodazole; % transfer of intracellular ^3 H-FC to the cell surface, relative to rate in absence of inhibitor ([1]; NEM 2 mM, KNO3 50 mM, nocodazole, brefeldin A, vinblastine 40 μM, pulse labeled 2 min 31° C., then 30 min 31° C.): 50 ± 3%; concentration for maximal inhibition in assays of vesicular transport in vitro [2]: 1 mM; FC label in density gradient [3]: no peak of FC label was present with clathrin at d 1.12 g ml^-1; initial rate of efflux of FC from prelabeled cells to plasma [4]: increased several-fold; % efflux to plasma (3 min) ([4]; 2 mM NEM, 80% v/v plasma-PBS, 37° C., control 13.3 ± 0.1): 32.4 ± 0.2%; Δ total cholesterol [5]: 0.4 ± 0.2 μg dish^-1
